Source: patent publication US20240067693A1, “POLYPEPTIDES AND USES THEREOF” (MEDIMMUNE LIMITED, priority 2020, published 2024)
Numbered stars: 1 amine (or outer) side, 2 acyl side, 3 side chain; on linkers, the order of the positions; unused ones are H or OH. Bridge positions count the residues as written; N and C are the ends. Square brackets hold non-standard residues; d marks the D form. Side chains are listed from the residue outwards. Peptide text beside a SMILES is read from it. * marks the point of attachment. C18 diacid = O=C(O)CCCCCCCCCCCCCCCCC(=O)*; γGlu = O=C(O)[C@H](CCC(=O)[*:2])N[*:1]; αMeF = C[C@](N)(Cc1ccccc1)C(=O)O; Dab = NCC[C@H](N)C(=O)O; Aib = CC(C)(N)C(=O)O

Columns and labels:
[1] = biological target: T1, human amylin receptor (calcitonin receptor co-expressed with receptor activity modifying protein, RAMP3) (hAMYR3) (Homo sapiens, UniProt O60896+P30988); assay: cAMP production in 1321N1 cells with stable recombinant expression of human amylin receptor (hAMYR3); assay type: cell-based; details: for Ratio (selectivity hAMYR vs hCTR, ratio of EC50 values at the two receptors): EC50 hCTR / EC50 hAMYR3; for EC50: cAMP, 1321N1 cells, assay buffer with 0.1% BSA, read-out: EC50 (pM) hAMYR3
T1 construct: expressed in transfected cells
T1 sequence (P30988 25-474): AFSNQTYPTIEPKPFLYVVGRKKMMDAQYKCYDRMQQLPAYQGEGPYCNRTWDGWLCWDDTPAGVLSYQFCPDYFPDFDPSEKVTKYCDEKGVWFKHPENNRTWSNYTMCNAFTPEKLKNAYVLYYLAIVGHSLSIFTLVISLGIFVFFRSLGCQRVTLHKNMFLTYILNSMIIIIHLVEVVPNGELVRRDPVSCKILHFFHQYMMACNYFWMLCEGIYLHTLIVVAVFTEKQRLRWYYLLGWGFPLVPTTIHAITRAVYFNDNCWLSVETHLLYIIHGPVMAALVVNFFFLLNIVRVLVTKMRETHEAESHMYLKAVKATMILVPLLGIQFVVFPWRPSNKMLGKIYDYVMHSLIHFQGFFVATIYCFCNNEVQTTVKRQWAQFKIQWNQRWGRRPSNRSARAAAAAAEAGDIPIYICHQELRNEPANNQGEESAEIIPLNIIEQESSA
T1 sequence (O60896 24-148 partner): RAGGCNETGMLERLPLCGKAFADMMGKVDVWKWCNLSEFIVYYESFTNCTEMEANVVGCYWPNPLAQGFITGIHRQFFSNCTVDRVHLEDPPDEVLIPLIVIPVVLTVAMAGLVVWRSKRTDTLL
Outline: (§1)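 EC50 values come from 4-parameter logistic fits of HTRF cAMP signal, normalised to maximal calcitonin or amylin effect. Peptides were tested in duplicate for 30 min at RT in IBMX-containing (0.5 mM) BSA/HEPES buffer pH 7.4 on stable 1321N1 (human CTR, AMYR3) or HEK (rat CTR, AMYR3) lines.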

[2] = biological target: T2, rat amylin receptor (calcitonin receptor co-expressed with receptor activity modifying protein, RAMP3) (Rat AMYR3) (Rattus norvegicus, UniProt P32214+Q9JJ73); assay: cAMP production in HEK cells with stable recombinant expression of rat amylin receptor (Rat AMYR3); assay type: cell-based; details: assay buffer with 0.1% BSA
T2 construct: expressed in transfected cells
T2 sequence (P32214 25-516): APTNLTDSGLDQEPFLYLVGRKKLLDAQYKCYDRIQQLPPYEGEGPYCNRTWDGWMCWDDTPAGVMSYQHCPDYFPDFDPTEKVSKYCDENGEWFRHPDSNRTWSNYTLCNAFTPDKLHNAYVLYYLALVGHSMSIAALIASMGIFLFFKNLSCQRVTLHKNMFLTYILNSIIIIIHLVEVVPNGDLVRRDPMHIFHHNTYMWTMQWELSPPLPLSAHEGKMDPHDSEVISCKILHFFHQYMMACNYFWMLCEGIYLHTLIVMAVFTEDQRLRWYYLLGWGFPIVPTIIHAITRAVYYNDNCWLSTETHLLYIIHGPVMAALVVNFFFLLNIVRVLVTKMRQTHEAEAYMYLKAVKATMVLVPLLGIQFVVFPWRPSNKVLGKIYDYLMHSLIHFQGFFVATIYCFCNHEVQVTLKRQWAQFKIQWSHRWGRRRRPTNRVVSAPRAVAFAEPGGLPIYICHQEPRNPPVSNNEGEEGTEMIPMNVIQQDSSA
T2 sequence (Q9JJ73 23-147 partner): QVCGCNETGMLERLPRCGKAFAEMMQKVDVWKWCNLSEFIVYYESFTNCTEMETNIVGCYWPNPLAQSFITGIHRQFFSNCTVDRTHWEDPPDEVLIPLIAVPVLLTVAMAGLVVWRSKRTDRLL
Outline: as §1

lean rats = assay: Rat acute food intake study; assay type: in vivo; details: lean male Sprague Dawley rats, 20 nmol/kg subcutaneously
Outline: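 Male Sprague Dawley rats (n=7/group), fasted 6 h, received 20 nmol/kg test compound or 60 nmol/kg pramlintide subcutaneously 30 min before food return at dark onset. Food intake recorded automatically in home cages over 3 days, binned hourly and analysed as cumulative dark-period intake; body weight taken daily.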

Ratio (selectivity hAMYR vs hCTR, ratio of EC50 values at the two receptors) [1] | EC50 [1] [pM] | EC50 [2] [pM] | SMILES | Cummulative food intake (% vehicle treated intake) At 12 h (lean rats) [% vehicle treated intake] | Cummulative food intake (% vehicle treated intake) At 24 h (lean rats) [% vehicle treated intake] | Cummulative food intake (% vehicle treated intake) At 48 h (lean rats) [% vehicle treated intake]
5 | 246 | 2.9 | CC[C@H](C)[C@H](NC(=O)[C@@H]1CCCN1C(=O)CNC(=O)[C@H](Cc1ccccc1)NC(=O)[C@H](CC(N)=O)NC(=O)[C@H](CC(N)=O)NC(=O)[C@H](CO)NC(=O)[C@H](CO)NC(=O)[C@H](Cc1c[nH]cn1)NC(=O)[C@@H](NC(=O)[C@H](CC(C)C)NC(=O)[C@H](Cc1ccccc1)NC(=O)[C@H](CC(N)=O)NC(=O)[C@H](C)NC(=O)[C@H](CC(C)C)NC(=O)[C@H](CCCNC(=N)N)NC(=O)[C@H](CCC(N)=O)NC(=O)[C@@H](NC(=O)[C@H](C)NC(=O)[C@@H]1CSSC[C@H](NC(=O)[C@H](CCCCN)NC(=O)CC[C@H](NC(=O)CCCCCCCCCCCCCCCCC(=O)O)C(=O)O)C(=O)N[C@@H](CC(N)=O)C(=O)N[C@@H]([C@@H](C)O)C(=O)N[C@@H](C)C(=O)N[C@@H]([C@@H](C)O)C(=O)N1)[C@@H](C)O)C(C)C)C(=O)N[C@@H](CC(C)C)C(=O)N1CCC[C@H]1C(=O)N1CCC[C@H]1C(=O)N[C@H](C(=O)N[C@@H](CC(N)=O)C(=O)N[C@H](C(=O)NCC(=O)N[C@@H](CO)C(=O)N[C@@H](CC(N)=O)C(=O)N[C@H](C(=O)N[C@@H](Cc1ccc(O)cc1)C(N)=O)[C@@H](C)O)C(C)C)[C@@H](C)O [Peptide 3] ({C18 diacid-γGlu}-KCNTATCATQRLANFLVHSSNNFGPILPPTNVGSNTY-NH2; disulfide 2-7) | 13.4 | 14.4 | 30.3
54 | 375 | 25.6 | CC[C@H](C)[C@H](NC(=O)[C@H](C)NC(=O)[C@@H]1CCCN1C(=O)[C@H](Cc1ccccc1)NC(=O)[C@H](CC(N)=O)NC(=O)[C@H](CCN)NC(=O)[C@H](CO)NC(=O)[C@H](CO)NC(=O)[C@H](Cc1c[nH]cn1)NC(=O)[C@@H](NC(=O)[C@H](CC(C)C)NC(=O)[C@H](Cc1ccccc1)NC(=O)[C@H](CC(N)=O)NC(=O)[C@H](C)NC(=O)[C@H](CC(C)C)NC(=O)[C@H](CCCNC(=N)N)NC(=O)[C@H](CCC(N)=O)NC(=O)[C@@H](NC(=O)[C@H](C)NC(=O)[C@@H]1CSSC[C@H](NC(=O)[C@@H](N)CCCCNC(=O)CC[C@H](NC(=O)CC[C@H](NC(=O)CCCCCCCCCCCCCCCCC(=O)O)C(=O)O)C(=O)O)C(=O)N[C@@H](CC(N)=O)C(=O)N[C@@H]([C@@H](C)O)C(=O)N[C@@H](C)C(=O)N[C@@H]([C@@H](C)O)C(=O)N1)[C@@H](C)O)C(C)C)C(=O)N[C@@H](CC(C)C)C(=O)N[C@@H](CO)C(=O)N1CCC[C@H]1C(=O)N[C@H](C(=O)N[C@@H](CC(N)=O)C(=O)N[C@H](C(=O)NCC(=O)N[C@@H](CO)C(=O)N[C@@H](CC(N)=O)C(=O)N[C@H](C(=O)N[C@@H](Cc1ccc(O)cc1)C(N)=O)[C@@H](C)O)C(C)C)[C@@H](C)O [Peptide 8, K(γE-γE-C18diacid)[CNTATC]ATQRLANFLVHSS(Dab)NFPAILSPTNVGSNTY-amide] (H-K([γGlu-γGlu-C18 diacid])CNTATCATQRLANFLVHSS[Dab]NFPAILSPTNVGSNTY-NH2; disulfide 2-7) | 28.1 | 42.7 | 68.8
42 | 320 | 17.8 | CC[C@H](C)[C@H](NC(=O)[C@H](C)NC(=O)[C@@H]1CCCN1C(=O)[C@H](Cc1ccccc1)NC(=O)[C@H](CC(N)=O)NC(=O)C(C)(C)NC(=O)[C@H](CO)NC(=O)[C@H](CO)NC(=O)[C@H](Cc1c[nH]cn1)NC(=O)[C@@H](NC(=O)[C@H](CC(C)C)NC(=O)[C@H](Cc1ccccc1)NC(=O)[C@H](CC(N)=O)NC(=O)[C@H](C)NC(=O)[C@H](CC(C)C)NC(=O)[C@H](CCCNC(=N)N)NC(=O)[C@H](CCC(N)=O)NC(=O)[C@@H](NC(=O)[C@H](C)NC(=O)[C@@H]1CSSC[C@H](NC(=O)[C@@H](N)CCCCNC(=O)CC[C@H](NC(=O)CC[C@H](NC(=O)CCCCCCCCCCCCCCCCC(=O)O)C(=O)O)C(=O)O)C(=O)N[C@@H](CC(N)=O)C(=O)N[C@@H]([C@@H](C)O)C(=O)N[C@@H](C)C(=O)N[C@@H]([C@@H](C)O)C(=O)N1)[C@@H](C)O)C(C)C)C(=O)N[C@@H](CC(C)C)C(=O)N[C@@H](CO)C(=O)N1CCC[C@H]1C(=O)N[C@H](C(=O)N[C@@H](CC(N)=O)C(=O)N[C@H](C(=O)NCC(=O)N[C@@H](CO)C(=O)N[C@@H](CC(N)=O)C(=O)N[C@H](C(=O)N[C@@H](Cc1ccc(O)cc1)C(N)=O)[C@@H](C)O)C(C)C)[C@@H](C)O [Peptide 9, K(γE-γE-C18diacid)[CNTATC]ATQRLANFLVHSS(Aib)NFPAILSPTNVGSNTY-amide] (H-K([γGlu-γGlu-C18 diacid])CNTATCATQRLANFLVHSS[Aib]NFPAILSPTNVGSNTY-NH2; disulfide 2-7) | 21.9 | 30.8 | 56.5
15 | 183 | 12.1 | CC[C@H](C)[C@H](NC(=O)[C@@H]1CCCN1C(=O)CNC(=O)[C@](C)(Cc1ccccc1)NC(=O)[C@H](CC(N)=O)NC(=O)[C@H](CC(N)=O)NC(=O)[C@H](CO)NC(=O)[C@H](CO)NC(=O)[C@H](Cc1c[nH]cn1)NC(=O)[C@H](CCCNC(=N)N)NC(=O)[C@H](CC(C)C)NC(=O)[C@H](Cc1ccccc1)NC(=O)[C@H](CCC(=O)O)NC(=O)[C@H](C)NC(=O)[C@H](CC(C)C)NC(=O)[C@H](CCCNC(=N)N)NC(=O)[C@H](CCC(N)=O)NC(=O)[C@@H](NC(=O)[C@H](C)NC(=O)[C@@H]1CSSC[C@H](NC(=O)CC[C@H](NC(=O)CCCCCCCCCCCCCCCCC(=O)O)C(=O)O)C(=O)N[C@@H](CC(N)=O)C(=O)N[C@@H]([C@@H](C)O)C(=O)N[C@@H](C)C(=O)N[C@@H]([C@@H](C)O)C(=O)N1)[C@@H](C)O)C(=O)N[C@@H](CC(C)C)C(=O)N1CCC[C@H]1C(=O)N1CCC[C@H]1C(=O)N[C@H](C(=O)N[C@@H](CC(N)=O)C(=O)N[C@H](C(=O)NCC(=O)N[C@@H](CO)C(=O)N[C@@H](CC(N)=O)C(=O)N[C@H](C(=O)N[C@@H](Cc1ccc(O)cc1)C(N)=O)[C@@H](C)O)C(C)C)[C@@H](C)O [Peptide 10, C18diacid-γE-[CNTATC]ATQRLAEFLRHSSNN(αMePhe)GPILPPTNVGSNTY-amide] ({C18 diacid-γGlu}-CNTATCATQRLAEFLRHSSNN[αMeF]GPILPPTNVGSNTY-NH2; disulfide 1-6) | 18.8 | 24.6 | 46.6
